Laboratory results taken from the supplement of paper PMC10307832.

Columns and labels:
Assay in all cases: relative viability (nuclei count vs DMSO), 5 days (fraction); higher = more cells survive
[1] = tested on: NCI-H2126
How it was run: (§1)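 The day after seeding in 1536-well plates, lung cancer cell lines were treated by pin tool with a single drug, or with a fixed anchor-drug dose together with five library-drug doses (not always all listed) in √10 steps. After 5 days, a combined fix-and-stain solution (final 0.05% Triton X-100, 1% formaldehyde, 1 ug/ml Hoechst) was added. Nuclei counted on 4× images gave relative viability as treated counts over vehicle counts, reported as the median of duplicate plates.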

[2] = tested on: NCI-H2228
How it was run: as §1

[3] = tested on: HOP-62
How it was run: as §1

[4] = tested on: LOU-NH91
How it was run: as §1

[5] = tested on: NCI-H1734
How it was run: as §1

[6] = tested on: RERF-LC-KJ
How it was run: as §1

[7] = tested on: NCI-H2347
How it was run: as §1

[8] = tested on: LXF-289
How it was run: as §1

[9] = tested on: NCI-H1755
How it was run: as §1

[10] = tested on: NCI-H358
How it was run: as §1

[11] = tested on: LC-2-ad
How it was run: as §1

[12] = tested on: NCI-H2342
How it was run: as §1

[13] = tested on: NCI-H647
How it was run: as §1

[14] = tested on: NCI-H1915
How it was run: as §1

[15] = tested on: NCI-H460
How it was run: as §1

[16] = tested on: SW 1573
How it was run: as §1

[17] = tested on: NCI-H1975
How it was run: as §1

[18] = tested on: A-427
How it was run: as §1

[19] = tested on: SK-LU-1
How it was run: as §1

[20] = tested on: PC-3 [JPC-3]
How it was run: as §1

[21] = tested on: HCC-78
How it was run: as §1

[22] = tested on: HCC-15
How it was run: as §1

NC(=O)Nc1cc(-c2cccc(F)c2)sc1C(=O)N[C@H]1CCCNC1 [AZD7762] + COc1cc2c(Oc3ccc(NC(=O)C4(C(=O)Nc5ccc(F)cc5)CC4)cc3F)ccnc2cc1OCCCN1CCOCC1 [Foretinib] (partner 0.25 µM) was tested, and the relative viability ([1]; first compound 0.01 µM) was 1.23, the relative viability ([1]; first compound 0.03162 µM) was 1.19 and the relative viability ([1]; first compound 0.1 µM) was 1.2. It also gave a relative viability ([1]; first compound 0.3162 µM) of 1.28, a relative viability ([1]; first compound 1 µM) of 1.26 and a relative viability ([2]; first compound 0.01 µM) of 0.851. For the same compound, the relative viability ([2]; first compound 0.03162 µM) was 0.788, the relative viability ([2]; first compound 0.1 µM) was 0.825 and the relative viability ([2]; first compound 0.3162 µM) was 0.828. For the same compound, the relative viability ([2]; first compound 1 µM) was 0.265, the relative viability ([3]; first compound 0.01 µM) was 1.17 and the relative viability ([3]; first compound 0.03162 µM) was 1.14. The relative viability ([3]; first compound 0.1 µM) was 1.23, the relative viability ([3]; first compound 0.3162 µM) was 1.1 and the relative viability ([3]; first compound 1 µM) was 1.14. For the same compound, the relative viability ([4]; first compound 0.01 µM) was 0.925, the relative viability ([4]; first compound 0.03162 µM) was 0.947 and the relative viability ([4]; first compound 0.1 µM) was 0.96. It also gave a relative viability ([4]; first compound 0.3162 µM) of 0.93, a relative viability ([4]; first compound 1 µM) of 0.737 and a relative viability ([5]; first compound 0.01 µM) of 0.979. For the same compound, the relative viability ([5]; first compound 0.03162 µM) was 0.97, the relative viability ([5]; first compound 0.1 µM) was 0.929 and the relative viability ([5]; first compound 0.3162 µM) was 0.807. It also gave a relative viability ([5]; first compound 1 µM) of 0.436, a relative viability ([6]; first compound 0.01 µM) of 0.882 and a relative viability ([6]; first compound 0.03162 µM) of 0.891. It also gave a relative viability ([6]; first compound 0.1 µM) of 0.965, a relative viability ([6]; first compound 0.3162 µM) of 0.944 and a relative viability ([6]; first compound 1 µM) of 0.97. It also gave a relative viability ([7]; first compound 0.01 µM) of 1.55, a relative viability ([7]; first compound 0.03162 µM) of 0.791 and a relative viability ([7]; first compound 0.1 µM) of 0.767. For the same compound, the relative viability ([7]; first compound 0.3162 µM) was 0.616, the relative viability ([7]; first compound 1 µM) was 0.51 and the relative viability ([8]; first compound 0.01 µM) was 0.991. It also gave a relative viability ([8]; first compound 0.03162 µM) of 1.05, a relative viability ([8]; first compound 0.1 µM) of 1.05 and a relative viability ([8]; first compound 0.3162 µM) of 1.01. The relative viability ([8]; first compound 1 µM) was 1.08, the relative viability ([9]; first compound 0.01 µM) was 0.908 and the relative viability ([9]; first compound 0.03162 µM) was 0.96. It also gave a relative viability ([9]; first compound 0.1 µM) of 0.921, a relative viability ([9]; first compound 0.3162 µM) of 0.918 and a relative viability ([9]; first compound 1 µM) of 0.473. The relative viability ([10]; first compound 0.01 µM) was 0.532, the relative viability ([10]; first compound 0.03162 µM) was 0.76 and the relative viability ([10]; first compound 0.1 µM) was 0.628. For the same compound, the relative viability ([10]; first compound 0.3162 µM) was 0.647, the relative viability ([10]; first compound 1 µM) was 0.378 and the relative viability ([11]; first compound 0.01 µM) was 1.15. It also gave a relative viability ([11]; first compound 0.03162 µM) of 1.09, a relative viability ([11]; first compound 0.1 µM) of 1.07 and a relative viability ([11]; first compound 0.3162 µM) of 1.18. For the same compound, the relative viability ([11]; first compound 1 µM) was 0.756, the relative viability ([12]; first compound 0.01 µM) was 0.992 and the relative viability ([12]; first compound 0.03162 µM) was 1.14. It also gave a relative viability ([12]; first compound 0.1 µM) of 1.09, a relative viability ([12]; first compound 0.3162 µM) of 1.1 and a relative viability ([12]; first compound 1 µM) of 1.25. It also gave a relative viability ([13]; first compound 0.01 µM) of 1.23, a relative viability ([13]; first compound 0.03162 µM) of 1.32 and a relative viability ([13]; first compound 0.1 µM) of 1.23. It also gave a relative viability ([13]; first compound 0.3162 µM) of 1.19, a relative viability ([13]; first compound 1 µM) of 0.326 and a relative viability ([14]; first compound 0.01 µM) of 1.18. For the same compound, the relative viability ([14]; first compound 0.03162 µM) was 1.08, the relative viability ([14]; first compound 0.1 µM) was 1.09 and the relative viability ([14]; first compound 0.3162 µM) was 1.04. For the same compound, the relative viability ([14]; first compound 1 µM) was 0.981, the relative viability ([15]; first compound 0.01 µM) was 1.12 and the relative viability ([15]; first compound 0.03162 µM) was 1. The relative viability ([15]; first compound 0.1 µM) was 1.01, the relative viability ([15]; first compound 0.3162 µM) was 0.964 and the relative viability ([15]; first compound 1 µM) was 0.176. It also gave a relative viability ([16]; first compound 0.01 µM) of 0.845, a relative viability ([16]; first compound 0.03162 µM) of 0.866 and a relative viability ([16]; first compound 0.1 µM) of 0.99. For the same compound, the relative viability ([16]; first compound 0.3162 µM) was 1.12, the relative viability ([16]; first compound 1 µM) was 1.02 and the relative viability ([17]; first compound 0.01 µM) was 0.926. The relative viability ([17]; first compound 0.03162 µM) was 0.943, the relative viability ([17]; first compound 0.1 µM) was 0.964 and the relative viability ([17]; first compound 0.3162 µM) was 0.854. For the same compound, the relative viability ([17]; first compound 1 µM) was 0.624, the relative viability ([18]; first compound 0.01 µM) was 1.08 and the relative viability ([18]; first compound 0.03162 µM) was 0.976. The relative viability ([18]; first compound 0.1 µM) was 1.03, the relative viability ([18]; first compound 0.3162 µM) was 0.781 and the relative viability ([18]; first compound 1 µM) was 0.755. The relative viability ([19]; first compound 0.01 µM) was 1.01, the relative viability ([19]; first compound 0.03162 µM) was 0.737 and the relative viability ([19]; first compound 0.1 µM) was 0.461. For the same compound, the relative viability ([19]; first compound 0.3162 µM) was 0.185, the relative viability ([19]; first compound 1 µM) was 0.145 and the relative viability ([20]; first compound 0.01 µM) was 1.06. The relative viability ([20]; first compound 0.03162 µM) was 1.06, the relative viability ([20]; first compound 0.1 µM) was 1.04 and the relative viability ([20]; first compound 0.3162 µM) was 1.13. The relative viability ([20]; first compound 1 µM) was 1.02, the relative viability ([21]; first compound 0.01 µM) was 0.619 and the relative viability ([21]; first compound 0.03162 µM) was 0.611. It also gave a relative viability ([21]; first compound 0.1 µM) of 0.589, a relative viability ([21]; first compound 0.3162 µM) of 0.682 and a relative viability ([21]; first compound 1 µM) of 0.578. The relative viability ([22]; first compound 0.01 µM) was 1.06, the relative viability ([22]; first compound 0.03162 µM) was 0.995 and the relative viability ([22]; first compound 0.1 µM) was 0.993. It also gave a relative viability ([22]; first compound 0.3162 µM) of 1.06 and a relative viability ([22]; first compound 1 µM) of 0.983.
